{"source": "paper PMC9380258", "about": "“Primary and secondary functions of HLA-E are determined by stability and conformation of the peptide-bound complexes” (Cell Reports, 2022)", "key": {"[1]": {"test_system": "HLA-E", "format": "binding, human", "conditions": "for Tm (°C) 12M, HLA-E-β2M-peptide complex thermal stability: pH 8"}, "[2]": {"test_system": "HLA-E", "set-up": "method as in Walters et al. 2020", "conditions": "sandwich ELISA (3D12 anti-HLA-E capture, anti-β2M detection) after peptide exchange; normalised signal as percentage of positive control VL9 signal; previously published; ref Walters et al. 2020; cited from earlier work"}, "[3]": {"target": "HLA-E*01:03 (Homo sapiens, UniProt P13747)", "assay": "SEC-SAXS of peptide-refolded HLA-E*01:03 complexes"}}, "note": "Like-named read-outs stand apart in the source and are kept apart here."}
{"sequence": "VMAPRTVLL [VL9, reference compound]", "values": [{"measurement": "Tm (°C) 12M, HLA-E-β2M-peptide complex thermal stability", "setting": "[1]", "result": 49.4, "unit": "°C"}, {"measurement": "ELISA Rank (%VL9 binding)", "setting": "[2]", "result": 100, "unit": "%"}]}
{"sequence": "VMAPRTQLL [VL9 P7Q]", "values": [{"measurement": "drop in thermal stability", "setting": "[1]", "result": 6.6, "unit": "°C"}]}
{"sequence": "RMAATAQVL [Mtb14]", "values": [{"measurement": "Tm (°C) 12M, HLA-E-β2M-peptide complex thermal stability", "setting": "[1]", "result": 37.8, "unit": "°C"}, {"measurement": "Molecular envelope Vol %change", "setting": "[3]", "result": "−32", "unit": "%"}, {"measurement": "ELISA Rank (%VL9 binding)", "setting": "[2]", "result": 48, "unit": "%"}]}
{"sequence": "RMYNPTNIL [RL9SIV]", "values": [{"measurement": "Tm (°C) 12M, HLA-E-β2M-peptide complex thermal stability", "setting": "[1]", "result": 35.2, "unit": "°C"}, {"measurement": "Molecular envelope Vol %change", "setting": "[3]", "result": "−34", "unit": "%"}, {"measurement": "ELISA Rank (%VL9 binding)", "setting": "[2]", "result": 22, "unit": "%"}]}
{"sequence": "RMYSPTSIL [RL9HIV]", "values": [{"measurement": "Tm (°C) 12M, HLA-E-β2M-peptide complex thermal stability", "setting": "[1]", "result": 38.2, "unit": "°C"}, {"measurement": "Molecular envelope Vol %change", "setting": "[3]; % change in model volume following 120 μM excess peptide addition", "result": "−42", "unit": "%"}, {"measurement": "ELISA Rank (%VL9 binding)", "setting": "[2]", "result": 43, "unit": "%"}]}
{"sequence": "QAISPRTLN [Neg Ctrl pep, reference compound]", "values": [{"measurement": "Tm (°C) 12M, HLA-E-β2M-peptide complex thermal stability", "setting": "[1]", "result": 31.8, "unit": "°C"}, {"measurement": "ELISA Rank (%VL9 binding)", "setting": "[2]", "result": 0.3, "unit": "%"}]}
{"sequence": "SQAPLPCVL [BZLF1]", "values": [{"measurement": "Tm (°C) 12M, HLA-E-β2M-peptide complex thermal stability", "setting": "[1]", "result": 37.7, "unit": "°C"}, {"measurement": "Dmax (Å), maximum dimension", "setting": "[3]", "result": 108, "unit": "Å"}, {"measurement": "Molecular envelope Vol (Å3)", "setting": "[3]", "result": "107,950 Å3"}, {"measurement": "ELISA Rank (%VL9 binding)", "setting": "[2]", "result": 41, "unit": "%"}]}
{"sequence": "EKQRESREK [EK9]", "values": [{"measurement": "ELISA Rank (%VL9 binding)", "setting": "[2]", "result": "< 10", "unit": "%"}]}
{"sequence": "RLPAKAPLL [Mtb44]", "values": [{"measurement": "Tm (°C) 12M, HLA-E-β2M-peptide complex thermal stability", "setting": "[1]", "result": 50.6, "unit": "°C"}, {"measurement": "ELISA Rank (%VL9 binding)", "setting": "[2]", "result": 97, "unit": "%"}]}
{"sequence": "EIEVDDDLIQK [EK11]", "values": [{"measurement": "ELISA Rank (%VL9 binding)", "setting": "[2]", "result": "minimal binding"}]}
